Measurements: patent US7049340B1, “Neuroprotective and retinoprotective ophthalmologic drugs” (priority 1999, dated 2006)

Tested on: patients with retinal venous occlusion
Assay: Clinical treatment of retinal venous occlusions
Type: in vivo, human
Conditions: for visual acuity after treatment: oedematous and ischemic type venous branch occlusion, two months
Description: The invention will now be illustrated by the following description of clinical examples which, of course, are not limiting in nature. In these examples the active principle, in particular ramipril, was administered continuously in an oral form, in an amount of 1.25 mg per day.

CCOC(=O)[C@H](CCc1ccccc1)N[C@@H](C)C(=O)N1[C@H](C(=O)O)C[C@@H]2CCC[C@@H]21 [ramipril]
visual acuity after treatment (first patient, before 2/10): 8/10
functional and angiographic outcome (majority of patients treated): improved both on the functional and on the angiographic level
visual acuity after treatment (second patient, before 6/10): 10/10
